Laboratory results as given in patent publication US9562031B1, “Phenethyldihydrobenzodioxolones and methods of use” (Sequoia Sciences, Inc., priority 2015, dated 2017).
Read-outs that look alike come from different tables or passages of the source. Values belong to the molecule of their own block, whether it stands above or below them.

Legend:
[1] = system: M14 (amelanotic melanoma) cells; assay: antiproliferation assay (72 h, CELLTITER 96), M14; assay type: cell-based, human; conditions: Homo sapiens
Protocol: (§1) All of the compounds shown in Table 3-Table 8 below were prepared synthetically as described in EXAMPLE I. The compounds were tested for their ability to inhibit the proliferation of human cancer cells in vitro as described in the following paragraph. Table 3-Table 8 list the IC50 values in the M14 and NCI-H460 human cancer cell lines. IC50 is defined as the concentration of compound necessary to achieve 50% of the maximum growth inhibition.
(§2) For the antiproliferation assay, NCI-H460 (large cell lung carcinoma) or M14 (amelanotic melanoma) cells were grown in RPMI-1640 with 10% FBS supplemented with L-glutamine and HEPES. Cells were seeded into 96-well plates at 5×10^2 to 5×10^4 cells/well and allowed to adhere overnight; the medium was then removed. A stock solution of test compound in DMSO was diluted in medium to generate a series of working solutions. Aliquots (100 μl) of the working solutions were then added to the appropriate test wells to expose cells to the final concentrations of compound in a total volume of 100 μl. Seven different concentrations were tested, with 2-5 wells per concentration. Camptothecin was used as a positive control; wells containing vehicle without compound were used as negative controls. Plates were kept for 72 h in a 37° C., 5% CO2 incubator. After incubation, viable cells were detected with the CELLTITER 96 AQueous Non-Radioactive Cell Proliferation Assay (Promega), and IC50 values were determined using GraphPad Prism 5 software.

[2] = system: NCI-H460 (large cell lung carcinoma) cells; assay: antiproliferation assay (72 h, CELLTITER 96), NCI-H460; assay type: cell-based, human; conditions: Homo sapiens, read-out: NCI-H460 IC50
Protocol: as §1, §2

IC50 ([1]; Table 8): > 20000 nM | IC50 ([2]; NCI-H460, Table 8): 2600 nM
SMILES: C=CC[C@H]1C[C@]2([C@H](C)Cc3ccc(OC)c4occc34)OCOC2=CC1=O [Compound 84, (6S,7aR)-6-allyl-7a-((R)-1-(7-methoxybenzofuran-4-yl)propan-2-yl)-7,7a-dihydrobenzo[d][1,3]dioxol-5(6H)-one]

IC50 ([1]; Table 7): 7000 nM | IC50 ([2]; NCI-H460, Table 7): 15000 nM
SMILES: COc1cc(F)c(C[C@H](C)[C@]23C[C@H](CC(C)=O)C(=O)C=C2OCO3)cc1O [Compound 111, (6R,7aR)-7a-((S)-1-(2-fluoro-5-hydroxy-4-methoxyphenyl)propan-2-yl)-6-(2-oxopropyl)-7,7a-dihydrobenzo[d][1,3]dioxol-5(6H)-one]

IC50 ([1]; Table 7): 44 nM | IC50 ([2]; NCI-H460, Table 7): 68 nM
SMILES: C=C[C@@H](C)[C@H]1C[C@]2([C@@H](C)Cc3ccc(OC)cc3F)OCOC2=CC1=O [Compound 112, (6R,7aR)-6-((R)-but-3-en-2-yl)-7a-((S)-1-(2-fluoro-4-methoxyphenyl)propan-2-yl)-7,7a-dihydrobenzo[d][1,3]dioxol-5(6H)-one]

IC50 ([1]; Table 7): 3500 nM | IC50 ([2]; NCI-H460, Table 7): 2000 nM
SMILES: COc1cc(F)c(C[C@H](C)[C@]23C[C@H](Cc4ccncc4)C(=O)C=C2OCO3)cc1O [Compound 114, (6S,7aR)-7a-((S)-1-(2-fluoro-5-hydroxy-4-methoxyphenyl)propan-2-yl)-6-(pyridin-4-ylmethyl)-7,7a-dihydrobenzo[d][1,3]dioxol-5(6H)-one]

IC50 ([1]; Table 7): 1600 nM | IC50 ([2]; NCI-H460, Table 7): 2500 nM
SMILES: COc1cc(F)c(C[C@H](C)[C@]23C[C@H](Cc4ccco4)C(=O)C=C2OCO3)cc1O [Compound 113, (6S,7aR)-7a-((S)-1-(2-fluoro-5-hydroxy-4-methoxyphenyl)propan-2-yl)-6-(furan-2-ylmethyl)-7,7a-dihydrobenzo[d][1,3]dioxol-5(6H)-one]

IC50 ([1]; Table 4): > 20000 nM | IC50 ([2]; NCI-H460, Table 4): > 20000 nM
SMILES: C=CCC1C[C@]2([C@@H](C)Cc3ccc(OC)c(C(C)=O)c3)OCOC2=CC1=O (stereo partly drawn) [Compound 96, (7aR)-7a-((S)-1-(3-acetyl-4-methoxyphenyl)propan-2-yl)-6-allyl-7,7a-dihydrobenzo[d][1,3]dioxol-5(6H)-one]

IC50 ([1]; Table 5): > 20000 nM | IC50 ([2]; NCI-H460, Table 5): > 20000 nM
SMILES: C=CC[C@H]1C[C@]2([C@@H](C)Cc3ccc(OC(C)=O)cc3)OCOC2=CC1=O [Compound 100, 4-((S)-2-((3aR,5S)-5-allyl-6-oxo-3a,4,5,6-tetrahydrobenzo[d]dioxol-3a-yl)propyl)phenyl acetate]

IC50 ([1]; Table 7): > 20000 nM | IC50 ([2]; NCI-H460, Table 7): > 20000 nM
SMILES: COc1cc(F)c(C[C@H](C)[C@]23CCC(=O)C=C2OCO3)cc1O [Compound 104, (R)-7a-((S)-1-(2-fluoro-5-hydroxy-4-methoxyphenyl)propan-2-yl)-7,7a-dihydrobenzo[d][1,3]dioxol-5(6H)-one]

IC50 ([1]; Table 8): 4200 nM | IC50 ([2]; NCI-H460, Table 8): 4600 nM
SMILES: C=CC[C@H]1C[C@]2(C(C)Cc3ccc(OC)c(OC)c3)OCOC2=C(C)C1=O (stereo partly drawn) [Compound 88, (6S,7aR)-6-allyl-7a-(1-(3,4-dimethoxyphenyl)propan-2-yl)-4-methyl-7,7a-dihydrobenzo[d][1,3]dioxol-5(6H)-one]

IC50 ([1]; Table 7): 7000 nM | IC50 ([2]; NCI-H460, Table 7): 8000 nM
SMILES: COc1ccc(C[C@H](C)[C@]23C[C@H](CC=C(C)C)C(=O)C=C2OCO3)cc1OC [Compound 90]

Second part, the molecule before the results:

SMILES: C/C=C/[C@H]1C[C@]2([C@H](C)Cc3cc(O)c(OC)cc3F)OCOC2=CC1=O [Compound 74, (6R,7aR)-7a-((R)-1-(2-fluoro-5-hydroxy-4-methoxyphenyl)propan-2-yl)-6-((E)-prop-1-en-1-yl)-7,7a-dihydrobenzo[d][1,3]dioxol-5(6H)-one]
IC50 ([1]; Table 7): 120 nM | IC50 ([2]; NCI-H460, Table 7): 290 nM

SMILES: C/C=C/[C@H]1C[C@]2([C@@H](C)Cc3cc(O)c(OC)cc3F)OCOC2=CC1=O [Compound 75, (6R,7aR)-7a-((S)-1-(2-fluoro-5-hydroxy-4-methoxyphenyl)propan-2-yl)-6-((E)-prop-1-en-1-yl)-7,7a-dihydrobenzo[d][1,3]dioxol-5 (6H)-one]
IC50 ([1]; Table 7): 510 nM | IC50 ([2]; NCI-H460, Table 7): 860 nM

SMILES: C=CC[C@H]1C[C@]2(C(C)Cc3ccc(OC)cc3OC)OCOC2=CC1=O (stereo partly drawn) [Compound 52, (6S,7aR)-6-allyl-7a-(1-(2,4-dimethoxyphenyl)propan-2-yl)-7,7a-dihydrobenzo[d][1,3]dioxol-5(6H)-one]
IC50 ([1]; Table 6): 15000 nM | IC50 ([2]; NCI-H460, Table 6): 15000 nM

SMILES: C=CC[C@H]1C[C@]2([C@H](C)Cc3ccc(OC)c(OC)c3F)OCOC2=CC1=O [Compound 21, (6S,7aR)-6-allyl-7a-((R)-1-(2-fluoro-3,4-dimethoxyphenyl)propan-2-yl)-7,7a-dihydrobenzo[d][1,3]dioxol-5(6H)-one]
IC50 ([1]; Table 3): 2800 nM | IC50 ([2]; NCI-H460, Table 3): 3000 nM

SMILES: C=CC[C@H]1C[C@]2([C@@H](C)Cc3ccccc3)OCOC2=CC1=O [Compound 49]
IC50 ([1]; Table 6): 5100 nM | IC50 ([2]; NCI-H460, Table 6): 9700 nM

SMILES: C=CCOc1cc(C[C@@H](C)[C@]23C[C@H](CC=C)C(=O)C=C2OCO3)c(F)cc1OC [Compound 16, (6S,7aR)-6-allyl-7a-((R)-1-(5-(allyloxy)-2-fluoro-4-methoxyphenyl)propan-2-yl)-7,7a-dihydrobenzo[d][1,3]dioxol-5(6H)-one]
IC50 ([1]; Table 3): 520 nM | IC50 ([2]; NCI-H460, Table 3): 620 nM

SMILES: COc1ccc(C[C@H](C)[C@]23C[C@H](C/C=C/c4ccccc4)C(=O)C=C2OCO3)cc1OC (relative stereo) [Compound 71, (6S,7aR)-6-cinnamyl-7a-((S)-1-(3,4-dimethoxyphenyl)propan-2-yl)-7,7a-dihydrobenzo[d][1,3]dioxol-5(6H)-one]
IC50 ([1]; Table 7): 6400 nM | IC50 ([2]; NCI-H460, Table 7): 14000 nM

SMILES: C=CCNc1cc(CC(C)[C@]23C[C@H](CC=C)C(=O)C=C2OCO3)ccc1OC (stereo partly drawn) [Compound 36, (6S,7aR)-6-allyl-7a-(1-(3-(allylamino)-4-methoxyphenyl)propan-2-yl)-7,7a-dihydrobenzo[d][1,3]dioxol-5(6H)-one]
IC50 ([1]; Table 4): 720 nM | IC50 ([2]; NCI-H460, Table 4): 1900 nM

SMILES: C=CC[C@H]1C[C@]2([C@@H](C)Cc3ccc(OC)cc3)OCOC2=CC1=O [Compound 25, (6S,7aR)-6-allyl-7a-((S)-1-(4-methoxyphenyl)propan-2-yl)-7,7a-dihydrobenzo[d][1,3]dioxol-5(6H)-one]
IC50 ([1]; Table 4): 61 nM | IC50 ([2]; NCI-H460, Table 4): 88 nM

SMILES: C=CC[C@H]1C[C@]2([C@H](C)Cc3ccc(NC)c(F)c3)OCOC2=CC1=O [Compound 43, (6S,7aR)-6-allyl-7a-((R)-1-(3-fluoro-4-(methylamino)phenyl)propan-2-yl)-7,7a-dihydrobenzo[d][1,3]dioxol-5(6H)-one]
IC50 ([1]; Table 5): 64 nM | IC50 ([2]; NCI-H460, Table 5): 300 nM

SMILES: C=CC[C@H]1C[C@]2([C@H](C)Cc3cc(C(=O)OC)c(OC)cc3F)OCOC2=CC1=O [Compound 9, methyl 5-((R)-2-((3aR,5S)-5-allyl-6-oxo-3a,4,5,6-tetrahydrobenzo[d][1,3]dioxol-3a-yl)propyl)-4-fluoro-2-methoxybenzoate]
IC50 ([1]; Table 3): 210 nM | IC50 ([2]; NCI-H460, Table 3): 260 nM

SMILES: COc1ccc(C[C@H](C)[C@]23C[C@H](CC=C(F)F)C(=O)C=C2OCO3)c(F)c1 [Compound 68, (6S,7aR)-6-(3,3-difluoroallyl)-7a-((S)-1-(2-fluoro-4-methoxyphenyl)propan-2-yl)-7,7a-dihydrobenzo[d][1,3]dioxol-5(6H)-one]
IC50 ([1]; Table 7): 860 nM | IC50 ([2]; NCI-H460, Table 7): 820 nM

SMILES: C=CC[C@H]1C[C@]2([C@@H](C)Cc3cc(N)c(OC)cc3F)OCOC2=CC1=O [Compound 17, (6S,7aR)-6-allyl-7a-((S)-1-(5-amino-2-fluoro-4-methoxyphenyl)propan-2-yl)-7,7a-dihydrobenzo[d][1,3]dioxol-5(6H)-one]
IC50 ([1]; Table 3): 29 nM | IC50 ([2]; NCI-H460, Table 3): 160 nM

SMILES: C=CC[C@H]1C[C@]2([C@H](C)Cc3ccc(OC)cc3F)OCOC2=CC1=O (relative stereo) [Compound 3, 6-allyl-7a-(1-(2-fluoro-4-methoxyphenyl)propan-2-yl)-7,7a-dihydrobenzo[d][1,3]dioxol-5(6H)-one]
IC50 ([1]; Table 3): 13 nM | IC50 ([2]; NCI-H460, Table 3): 77 nM

SMILES: C=CC[C@H]1C[C@]2([C@@H](C)Cc3cccc(OC)c3)OCOC2=CC1=O [Compound 50, (6S,7aR)-6-allyl-7a-((S)-1-(3-methoxyphenyl)propan-2-yl)-7,7a-dihydrobenzo[d][1,3]dioxol-5(6H)-one]
IC50 ([1]; Table 6): 8800 nM | IC50 ([2]; NCI-H460, Table 6): 10600 nM

SMILES: C=CC[C@H]1C[C@]2([C@@H](C)Cc3cc(O)c(OC)cc3F)OCOC2=CC1=O [Compound 5, (6S,7aR)-6-allyl-7a-((S)-1-(2-fluoro-5-hydroxy-4-methoxyphenyl)propan-2-yl)-7,7a-dihydrobenzo[d][1,3]dioxol-5(6H)-one]
IC50 ([1]; Table 3): 9 nM | IC50 ([2]; NCI-H460, Table 3): 33 nM

SMILES: C=CC[C@H]1C[C@]2(CCc3ccc(OC)c(OC)c3)OCOC2=CC1=O [Compound 72, (6S,7aS)-6-allyl-7a-(3,4-dimethoxyphenethyl)-7,7a-dihydrobenzo[d][1,3]dioxol-5(6H)-one]
IC50 ([1]; Table 8): 2000 nM | IC50 ([2]; NCI-H460, Table 8): 3200 nM

SMILES: C=CC[C@H]1C[C@]2(C(C)Cc3cc(NC(C)=O)c(OC)cc3F)OCOC2=CC1=O (stereo in doubt) [Compound 19, N-(5-((S)-2-((3aR,5S)-5-allyl-6-oxo-3a,4,5,6-tetrahydrobenzo[d][1,3]dioxol-3a-yl)propyl)-4-fluoro-2-methoxyphenyl)acetamide]
IC50 ([1]; Table 3): 52 nM | IC50 ([2]; NCI-H460, Table 3): 71 nM
